Assay results taken from US20070112068A1, “Nitrile compound and its use in pest control” (priority 2003, published 2007).

Legend:
Assay type in all cases: in vivo
[1] = tested on: Culex pipiens pallens; test: Experimental Example 27: fan-ventilated knitted fabric preparation, Culex pipiens pallens; conditions: preparation of Formulation Example 10 ventilated by electric fan; 20 minutes exposure, after 24 hours
Experimental: A preparation of the present compound (31) prepared according to Formulation Example 10 is set at the upper part of an electric fun shown in FIG. 5 and then placed on the center of the floor of a chamber having 70 cm (width)×70 cm (depth)×70 cm (height). After the electric fan is operated to initiate to ventilate the preparation, about 20 female imagoes of Culex pipiens pallens are released in the chamber. After 20 minutes, all test pests are collected, placed in a plastic cup together with absorbent cotton impregnated with 5% sugar water, and left at 25° C.

[2] = tested on: Blattella germanica; test: Experimental Example 14: topical application, Blattella germanica; conditions: 1 μl of 1% (w/v) acetone solution onto sternum of thorax of female imagoes; after 7 days
Experimental: 1% (w/v) solutions of the present compounds (4), (20), (22), (23), (24), (29), (30), (31), (35), (36), (37), (38), (46), (53), (54), (56), (57), (59), (61), (66), (67), (68), (69), (70), (71), (79), (81), (83), (84), (89), and (90) in acetone were prepared. Onto the sternum of the thorax of female imagoes of Blattella germanica, 1 μl of the acetone solution was added dropwise. The imagoes were transferred to a plastic cup having a diameter of about 9 cm and a height of about 4.5 cm and left together with feed and water at 25° C. After 7 days, the number of surviving Blattella germanica was examined and the death rate of the pest was calculated. 10 imagoes of Blattella germanica were put in a cup and three replicate experiments were performed.

[3] = tested on: Formica fusca japonica; test: Experimental Example 20: poison bait, Formica fusca japonica; conditions: poison bait: 1 ml of 0.1% by weight acetone solution per 1 g unrefined sugar; 0.5 g bait; after 48 hours
Experimental: 1 ml of a 0.1% by weight solution of the present compound (31) in acetone was added dropwise to 1 g of a commercially available powdery unrefined sugar, mixed thoroughly and then air-dried to obtain a poison bait. A cotton ball impregnated with water and 0.5 g of the poison bait on an aluminum dish were placed in a plastic cup (860 mL) containing 10 imagoes of Formica fusca japonica. After 48 hours, the number of surviving Formica fusca japonica was examined and the death rate of the pest was calculated.

[4] = tested on: Coptotermes formosanus; test: Experimental Example 12: topical application, Coptotermes formosanus; conditions: 0.2 μl of 0.005% (w/v) solution onto notum of thorax of ergates; after one day
Experimental: The present compound (31) was dissolved in a 0.05% (w/v) solution of Sudan red 7B in acetone so that the present compound concentration was 0.005% (w/v) to prepare an experimental pesticidal solution. Onto the notum of the thorax of ergates of Coptotermes formosanus, 0.2 μl of this experimental solution was added dropwise. After one day from treatment, the number of surviving pests was examined and the death rate of the pest was calculated.

[5] = tested on: Periplaneta americana; test: Experimental Example 17: treated filter paper in paper box, Periplaneta americana; conditions: 0.1 ml of 5% (w/v) acetone solution on filter paper in paper box; after 7 days
Experimental: A 5% (w/v) solution of the present compound (31) in acetone was prepared. 0.1 ml of the solution was added dropwise onto a filter paper with 2 cm×2 cm and then air-dried. This filter paper was attached to the center of the inside bottom of a paper box having 10 cm (width)×2 cm (height)×7 cm (depth) with a two-sided tape. One hole of 2 mm in width and 2 cm in height was made through one side of this box. This box was placed in a plastic vat with 25 cm×20 cm×8 cm in height and therein 3 females and 3 males of Periplaneta americana were released. The inside wall of the plastic vat used in this experiment was coated with talc for preventing the escape of cockroaches. The plastic vat contained feed and water and left at 25° C. After 7 days, Periplaneta americana was observed and the death rate of the pest was calculated. This experiment was repeated two times.

[6] = tested on: Clogmia albipunctata; test: Experimental Example 9: treated filter paper suspended in glass chamber, Clogmia albipunctata; conditions: 2.5 ml of 2% (w/v) acetone solution on filter paper; 70 cm cube chamber; 2 hours exposure, 24 hours later
Experimental: A 2% (w/v) solution of the present compound (31) in acetone was prepared. Onto a filter paper with 10 cm×12.5 cm, 2.5 ml of the solution was added dropwise uniformly and then air-dried. This filter paper was suspended from the center of the ceiling of a glass chamber with 70 cm (width)×70 cm (depth)×70 cm (height) and therein 20 imagoes of Clogmia albipunctata were released. After 2 hours, all test pests were collected, put into a plastic cup together with absorbent cotton impregnated with 5% sugar water, and then left at 25° C. After 24 hours, the number of surviving Clogmia albipunctata was examined and the death rate was calculated (2 repetitions).

[7] = tested on: Blattalla germanica; test: Experimental Example 3: treated filter paper with sucrose bait, German cockroach; conditions: 500 ppm, 0.7 ml on filter paper; two male imagoes; after 6 days
Experimental: A filter paper having a diameter of 5.5 cm was spread on the bottom of a polyethylene cup having a diameter of 5.5 cm and 0.7 ml of the experimental pesticidal solution was added dropwise onto the filter paper. As a bait 30 mg of sucrose was uniformly placed on the filter paper. Into the polyethylene cup, two male Blattalla germanica imagoes were released and the cup was sealed with a lid. After 6 days, the number of surviving Blattalla germanica was examined and the death rate of the pest was calculated.

[8] = tested on: Musca domestica; test: Experimental Example 11: treated filter paper in Peet-Grady chamber, Musca domestica; conditions: 5 ml of 1% (w/v) acetone solution on filter paper; 1.8 m Peet-Grady chamber; 1 hour exposure, 24 hours later
Experimental: A 1% (w/v) solution of the present compound (31) in acetone was prepared. Onto a filter paper with 10 cm×25 cm, 5 ml of the solution was added dropwise uniformly and then air-dried. This filter paper was suspended from the center of the ceiling center of a Peet-Grady chamber with 1.8 m (width)×1.8 m (depth)×1.8 m (height) and therein about 50 imagoes of Musca domestica were released. After 1 hour, all test pests were collected, put into a plastic cup together with absorbent cotton impregnated with 5% sugar water, and then left at 25° C. After 24 hours, the number of surviving Musca domestica was examined and the death rate was calculated.

[9] = tested on: Culex pipiens pallens; test: Experimental Example 26: liquid-absorbing wick-type heat-vaporizing product, Culex pipiens pallens; conditions: liquid-absorbing wick-type product (Formulation Example 19); 20 minutes exposure, after 24 hours
Text: A part of a liquid-absorbing wick-type heat-vaporizing pesticidal product of the present compound (31) prepared according to Formulation Example 19 is set on a heater for a liquid absorbing wick-type heat-vaporizing pesticide, and then placed on the center of the floor of a chamber having 70 cm (width)×70 cm (depth)×70 cm (height). After the part of a liquid-absorbing wick-type heat-vaporizing pesticidal product is initiated to be heated with the heater, about 20 female imagoes of Culex pipiens pallens are released in the chamber. After 20 minutes, all test pests are collected, placed in a plastic cup together with absorbent cotton impregnated with 5% sugar water, and left at 25° C.

**Q.** With `N#CC(C#N)(CCC(F)(F)F)CC(F)(F)C(F)(F)C(F)(F)C(F)F` [(31)] as the molecule, how does the pesticidal effect [1] read?
**A.** pesticidal effect on Culex pipiens pallens is confirmed

**Q.** What about the “death rate of the pest” value [2] of the same molecule?
**A.** 100%

**Q.** What about the “death rate of Formica fusca japonica” value [3] of the same molecule?
**A.** 100%

**Q.** And the “death rate of the pest” value [4]?
**A.** 100%

**Q.** And the “death rate of the pest” value [5]?
**A.** 100%

**Q.** And the “death rate of the pest” value [6]?
**A.** 83%

**Q.** What about the “death rate of the pest” value [7] of the same molecule?
**A.** 100%

**Q.** What about the “death rate of the pest” value [8] of the same molecule?
**A.** 92%

**Q.** And the pesticidal effect [9]?
**A.** pesticidal effect on Culex pipiens pallens is confirmed
